Experimental data taken from ChEMBL document CHEMBL1201862, “PubChem BioAssay data set” (2004).
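Exposure lasted 48 hours, with cells grown in 96-well plates and compounds tested at five concentrations. The concentration for 50% growth inhibition is given as GI50.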 Activity calls are given as the source filed them. Cut-off read from the data, not from the text of the source: active = GI50 up to about 1.1 µM and inactive = higher.

Key:
Assay in all cases: inhibition of tumour cell growth, NCI panel, 48 h
CCRF-CEM = test system: CCRF-CEM
COLO 205 = test system: COLO 205
HCT-15 = test system: HCT-15
HOP-92 = test system: HOP-92
HT-29 = test system: HT-29
IGROV-1 = test system: IGROV-1
MCF7 = test system: MCF7
MDA-MB-435 = test system: MDA-MB-435
MOLT-4 = test system: MOLT-4
NCI-H23 = test system: NCI-H23
NCI-H522 = test system: NCI-H522
OVCAR-3 = test system: OVCAR-3
PC-3 = test system: PC-3
RXF 393 = test system: RXF 393
SK-MEL-5 = test system: SK-MEL-5
SR = test system: SR
T47D = test system: T47D
U-251 = test system: U-251
UO-31 = test system: UO-31
DLD-1 = test system: DLD-1

SMILES | GI50 (CCRF-CEM) | GI50 (COLO 205) | GI50 (HCT-15) | GI50 (HOP-92) | GI50 (HT-29) | GI50 (IGROV-1) | GI50 (MCF7) | GI50 (MDA-MB-435) | GI50 (MOLT-4) | GI50 (NCI-H23) | GI50 (NCI-H522) | GI50 (OVCAR-3) | GI50 (PC-3) | GI50 (RXF 393) | GI50 (SK-MEL-5) | GI50 (SR) | GI50 (T47D) | GI50 (U-251) | GI50 (UO-31) | GI50 (DLD-1)
N=C(N)SCc1ccc(Cl)c2ccccc12.O=[N+]([O-])c1ccc(O)c([N+](=O)[O-])c1 | 3.23 µM (inactive) | 6.81 µM (inactive) | 14.5 µM | 6.67 µM (inactive) | 11.4 µM (inactive) | 14.2 µM (inactive) | 10 µM (inactive) | 8.24 µM (inactive) | 1.4 µM (inactive) | 12.6 µM (inactive) | 7.78 µM (inactive) | 8.95 µM (inactive) | 12.6 µM (inactive) | 8.02 µM (inactive) | 8.61 µM (inactive) | 1.04 µM (active) | 5.35 µM (inactive) | 11.4 µM (inactive) | 12.3 µM (inactive) | 
Cc1cc(O)c2c3c1C(=O)Oc1c(CO)c(O)c(C(=O)O)c(c1O3)C=NN=Cc1c3c(c(CO)c(O)c1C(=O)O)OC(=O)c1c(C)cc(O)c(c1O3)C=NN=C2 |  | > 100 µM (inactive) | > 100 µM | > 100 µM (inactive) | > 100 µM (inactive) | > 100 µM (inactive) |  |  |  | > 100 µM (inactive) |  | 32.7 µM (inactive) |  | > 100 µM (inactive) | 40.2 µM (inactive) |  |  | > 100 µM (inactive) | > 100 µM (inactive) | > 100 µM (inactive)
CC1=CCC([C@@](C)(O)CCCC(C)(C)N=C=S)CC1 (some centres not stated) | 22.2 µM (inactive) | 16.1 µM (inactive) | 18.5 µM | 18.5 µM (inactive) | 17.7 µM (inactive) | 20.2 µM (inactive) | 18.7 µM (inactive) | 17.1 µM (inactive) | 21.5 µM (inactive) | 20.9 µM (inactive) | 17.3 µM (inactive) | 18.4 µM (inactive) | 18.6 µM (inactive) | 13.7 µM (inactive) | 15.4 µM (inactive) | 19.8 µM (inactive) | 21 µM (inactive) | 18.8 µM (inactive) | 13.7 µM (inactive) | 
N#Cc1c(-c2ccc(Cl)c(Cl)c2)c(-c2ccc(Cl)c(Cl)c2)nn(CC(=O)O)c1=O | 48.2 µM (inactive) | 71.4 µM (inactive) | 28.2 µM | > 100 µM (inactive) | 33.3 µM (inactive) | > 100 µM (inactive) |  |  | 68.4 µM (inactive) |  |  | 27.2 µM (inactive) |  | 20.1 µM (inactive) | 34.7 µM (inactive) |  |  | 32.1 µM (inactive) | 57.8 µM (inactive) | 63.5 µM (inactive)
N#C/C(=C\c1c(O)cc(O)cc1O)C(N)=O | > 100 µM (inactive) | > 100 µM (inactive) | > 100 µM | > 100 µM (inactive) | > 100 µM (inactive) |  |  |  | > 100 µM (inactive) | > 100 µM (inactive) | > 100 µM (inactive) | > 100 µM (inactive) |  | > 100 µM (inactive) | > 100 µM (inactive) |  |  | > 100 µM (inactive) | > 100 µM (inactive) | > 100 µM (inactive)
CC12CC3CC/C(=N\O)C(C1)C3(N1CCOCC1)C/C2=N/O (configuration not stated) | > 100 µM (inactive) | > 100 µM (inactive) | > 100 µM | > 100 µM (inactive) | > 100 µM (inactive) | > 100 µM (inactive) | > 100 µM (inactive) | > 100 µM (inactive) | > 100 µM (inactive) | > 100 µM (inactive) | > 100 µM (inactive) | > 100 µM (inactive) | > 100 µM (inactive) | > 100 µM (inactive) | > 100 µM (inactive) | > 100 µM (inactive) | > 100 µM (inactive) | > 100 µM (inactive) | > 100 µM (inactive) | 
O/N=C1/C(=C/c2ccc(Cl)c(Cl)c2)CCCC1C(NO)c1ccc(Cl)c(Cl)c1 (configuration not stated) | 17.2 µM (inactive) | 18.3 µM (inactive) | 16.8 µM |  | 16.7 µM (inactive) | 19.9 µM (inactive) |  |  | 12.5 µM (inactive) | 17.3 µM (inactive) | 10.1 µM (inactive) | 14.7 µM (inactive) |  | 19.7 µM (inactive) | 18.5 µM (inactive) |  |  | 17.9 µM (inactive) | 18.7 µM (inactive) | 16.9 µM (inactive)
O=C1CCC2(CC1)SCCCS2 | > 100 µM (inactive) | > 100 µM (inactive) | > 100 µM | > 100 µM (inactive) | > 100 µM (inactive) | > 100 µM (inactive) |  |  |  | > 100 µM (inactive) | > 100 µM (inactive) | > 100 µM (inactive) |  | > 100 µM (inactive) | > 100 µM (inactive) |  |  | > 100 µM (inactive) | > 100 µM (inactive) | > 100 µM (inactive)
O=C1N[C@H](Cc2c[nH]cn2)C(=O)N2CCC[C@@H]12 | > 100 µM (inactive) | > 100 µM (inactive) | > 100 µM | > 100 µM (inactive) |  | > 100 µM (inactive) |  |  | > 100 µM (inactive) | > 100 µM (inactive) | > 100 µM (inactive) | > 100 µM (inactive) |  | > 100 µM (inactive) | > 100 µM (inactive) |  |  |  | > 100 µM (inactive) | > 100 µM (inactive)
CN(/N=C/c1ccccn1)C1=NCCCCN1 | > 100 µM (inactive) | > 100 µM (inactive) | > 100 µM | > 100 µM (inactive) | > 100 µM (inactive) | > 100 µM (inactive) | > 100 µM (inactive) | > 100 µM (inactive) | > 100 µM (inactive) | > 100 µM (inactive) | > 100 µM (inactive) | > 100 µM (inactive) | > 100 µM (inactive) | > 100 µM (inactive) | > 100 µM (inactive) | > 100 µM (inactive) | > 100 µM (inactive) | > 100 µM (inactive) | > 100 µM (inactive) | 
O=C1c2ccccc2CC1C1(O)C(=O)Nc2ccccc21 (configuration not stated) |  | > 100 µM (inactive) | > 100 µM | > 100 µM (inactive) | > 100 µM (inactive) | > 100 µM (inactive) |  |  | > 100 µM (inactive) | > 100 µM (inactive) | > 100 µM (inactive) | > 100 µM (inactive) |  | > 100 µM (inactive) | > 100 µM (inactive) |  |  |  | 34.6 µM (inactive) | > 100 µM (inactive)
CC(C(=O)c1ccc(Cl)cc1)C1OC(=O)C(Cl)=C1Cl (configuration not stated) | 19 µM (inactive) | 23.9 µM (inactive) | 21.5 µM |  | 31.6 µM (inactive) | 29.3 µM (inactive) |  |  | 24.8 µM (inactive) | 25.2 µM (inactive) | 18.9 µM (inactive) | 28.5 µM (inactive) |  | 19.7 µM (inactive) | 37.9 µM (inactive) |  |  | > 100 µM (inactive) | 95.9 µM (inactive) | 21.6 µM (inactive)
CCCC(C)C[C@@H](C)CC(C)/C=C(\C)c1oc(=O)c(C)c(O)c1C.CC[C@@H](C)C[C@@H](C)C[C@@H](C)/C=C(\C)c1oc(=O)c(C)c(O)c1C (some centres not stated) |  | 28.2 µM (inactive) |  |  | 13.9 µM (inactive) |  |  |  |  | 10 µM (inactive) | 14.8 µM (inactive) | 6.78 µM (inactive) |  | 13.4 µM (inactive) |  |  |  | 14.5 µM (inactive) | 13.6 µM (inactive) | 13.5 µM (inactive)
